Consider 1 compound from article PMC12029982, “The Mechanism of a Novel Mitochondrial-Targeted Icaritin Derivative in Regulating Apoptosis of BEL-7402 Cells Based on the SIRT3 and CypD-Mediated ROS/p38 MAPK Signaling Pathway” (Molecules, 2025).

Format in all cases: cell-based, human
The test system of data set [1] is BEL-7402 cells. As to the kind of experiment: JC-1 staining, mitochondrial membrane potential. Conditions: JC-1, 0.625, 1.25, 2.5 μmol/L, 48 h. The method, then: Drug grouping and administration were performed as described in Section 2.5. After 48 h of incubation, 500 μL of JC-1 fluorescent dye (Beyotime, Nanjing, China) was added to each well. The cells were stained at 37 °C for 30 min, after which the dye was discarded. The cells were then washed three times with PBS and observed under an inverted fluorescence microscope.

Data set [2] deals with BEL-7402 cells. Nature of the data set: Calcein AM/CoCl2 probe, MPTP opening. Conditions: increasing drug concentration, 24 h. As for the experimental part:
Drug grouping and administration were performed as described in Section 2.5. After 24 h of incubation, 500 μL of staining solution (containing 2 μM Calcein AM and 5 mM CoCl2) (Aladdin, Shanghai, China) was added to each well. The cells were stained for 30 min at 37 °C and protected from light. After staining, the solution was discarded, and the cells were washed twice with PBS. The cells were then observed under an inverted fluorescence microscope.

For another data set, the system named is HEK293. Nature of the data set: MTT assay, cytotoxicity to normal cell line. The method, then: Human cancer cell lines BEL-7402, A549, MCF-7, PC-3M, and normal renal cell line HEK293 were bought from the BeNa Culture Collection (Beijing, China). BEL7402, A549, and PC-3M were cultured in RPMI 1640 medium (Gibco, Carlsbad, CA, USA). MCF-7 and HEK293 were cultured in the DMEM medium (Gibco, CA, USA). The medium was supplemented with 10% fetal bovine serum (FBS) (CLARK, San Diego, CA, USA), 100 U/mL penicillin, and 0.1 mg/mL streptomycin (Beyotime, Nanjing, China). The cells were incubated in 5% CO2 at 37 °C.
The MTT assay was employed to assess the inhibitory effect of each compound on cell growth. A549, PC-3M, MCF-7, BEL-7402, and HEK293 cells in the logarithmic growth phase were seeded in 96-well culture plates at an inoculum density of 5 × 10^4 cells/mL. After overnight incubation at 37 °C in a 5% CO2 atmosphere, the cells fully adhered to the surface. Different concentrations of sample solutions (0, 3.125, 6.25, 12.5, 25, 50, 100 μmol/L) were added (100 μL) to treat the cells. After 48 h of drug treatment, 10 μL of a 5 mg/mL MTT solution was added to each well and incubated for 4 h at 37 °C. The supernatant was then discarded, and 150 μL of DMSO was added to dissolve the formazan. The mixture was shaken at room temperature for 15 min, and the absorbance (D) value was measured at 490 nm using a Microplate Reader (HBS-ScanY, Nanjing, China). The drug IC50 values were calculated using GraphPad Prism (v10.0). Each cell viability experiment was performed in triplicate.

The subject of another data set is DDIT3. As to the kind of experiment: Western blot. Conditions: vs blank control, p < 0.001. The method, then:
(§1) Drug grouping and administration were performed as described in Section 2.6. After 48 h of incubation, the supernatant was discarded, and the cells were washed twice with pre-cooled PBS. A volume of 150 µL of RIPA lysis buffer (Solarbio, Beijing, China) was added and incubated on ice. After sufficient lysis, the supernatant was centrifuged, and the protein concentration was determined using a BCA kit (Thermo, Waltham, MA, USA). The SDS-PAGE gel system was chosen based on the molecular weight of the target proteins to perform electrophoresis. After electrophoresis, the processed samples were transferred to a membrane and incubated at room temperature for 2 h to block non-specific binding. After membrane transfer, the membranes were incubated with primary antibodies against CypD (Proteintech Group, Wuhan, China), SIRT3 (Abcam, Cambridge, UK), P-MKK6 (Bioss, Beijing, China), P-P38 (Bioss, Beijing, China), DDIT3 (Bioss, Beijing, China), Cleaved-caspase-3 (Abcam, Cambridge, UK), and β-actin (ZSGB-BIO, Beijing, China) (1:1000) at 4 °C overnight. After primary antibody binding, the membranes were incubated with the corresponding secondary antibody (ZSGB-BIO, Beijing, China) (1:3000) at room temperature for 1 h. Immunoblot bands were detected using an enhanced chemiluminescence system (Analytik Jena AG, Jena, Germany). The bands were analyzed using ImageJ (v1.8.0) software.
In general terms: A western blot detects proteins with antibodies after separation by electrophoresis.

The next data set has as its system SIRT3. Nature of the data set: Western blot. Conditions: 48 h. As for the experimental part:
as §1

Another data set concerns P-P38. Nature of the data set: Western blot. Conditions: with increasing concentrations vs blank control, p < 0.001. As for the experimental part:
as §1

For a further data set, the system named is P-MKK6. Nature of the data set: Western blot. Conditions: with increasing concentrations vs blank control, p < 0.001. As for the experimental part:
as §1

For the next data set, the system named is CypD. As to the kind of experiment: Western blot. Conditions: 48 h. As for the experimental part:
as §1

The subject of the next data set is Cl-caspase-3. As to the kind of experiment: Western blot. Conditions: 48 h. The method, then:
as §1

Data set [3] relates to BEL-7402 cells. Nature of the data set: DAPI staining, apoptosis. Conditions: 0.625, 1.25, 2.5 μmol/L, 48 h. The method, then: BEL-7402 cells in the logarithmic growth phase were seeded in 12-well plates at a density of 1 × 10^5 cells/well. After overnight incubation, the cells were treated with different concentrations of Mito-ICT-4 (0.625, 1.25, and 2.5 μmol/L), and a control group was included. After 48 h of incubation, the cells were fixed with 4% histocyte fixative (Solarbio, Beijing, China) at room temperature for 15 min. After fixation, 500 μL of DAPI staining solution (Solarbio, Beijing, China) was added to each well and incubated at 37 °C for 20 min. The cells were then observed under an inverted fluorescence microscope (EVOS M5000, Waltham, MA, USA).

[4] abbreviates: low-concentration group vs control, p < 0.01.

A word on the IC50: it is the concentration that inhibits the measured activity by half. Low readings indicate inhibition by little substance, high ones a need for much substance. As for `COc1ccc(-c2oc3c(CC=C(C)C)c(OC(=O)CCCCCCCCCC[P+](c4ccccc4)(c4ccccc4)c4ccccc4)cc(O)c3c(=O)c2O)cc1` [Mito-ICT-4], the mitochondrial membrane potential entry in the data set with BEL-7402 cells [1] is given as “reduction”. The “morphology with Calcein AM/CoCl2 (MPTP opening)” value in the data set with BEL-7402 cells [2] was “transitioned from oval to round and, ultimately, to an irregular shape”. In the data set on HEK293 (Homo sapiens, HEK293, MTT, 48 h drug exposure, mean ± SD, normal cell line), the IC50 was determined as 67.1 ± 2.09 µM. Moreover, the “reduction compared to ICT (cytotoxicity in HEK293 cells)” value in the data set with HEK293 (from IC50 values in HEK293) is on record as 55.4%. In the data set on DDIT3, the “expression level of DDIT3” value is listed as “increased significantly”. Also, the SIRT3 expression levels result is reported as “decreased” with SIRT3 (setting [4]); “significantly reduced” in the data set on SIRT3 (medium- and high-concentration groups vs control, p < 0.001). Moreover, in the data set on P-P38, the “expression level of P-P38” value is given as “decreased significantly”. Moreover, the “expression level of P-MKK6” value in the data set on P-MKK6 is on record as “decreased significantly”. For the same compound, the CypD protein expression entry is listed as “elevated” in the data set with CypD (setting [4]); “significantly higher” in the data set on CypD (medium and high-concentration groups vs control, p < 0.001). Further, the “expression of Cl-caspase-3” value is listed as “significantly higher” in the data set on Cl-caspase-3 (high-concentration group vs control, p < 0.001) and “elevated” with Cl-caspase-3 (setting [4]). Moreover, the “nuclear morphology, DAPI staining” value in the data set with BEL-7402 cells [3] is “nuclei exhibited crumpling and cleavage”.
